Data published in US20070197606A1, “USE OF PPAR AGONISTS AS ANTI-OXIDANTS” (priority 2006, published 2007).

Key:
bile duct ligated rats [1] = type: in vivo, rat; conditions: serum; BDL rats, clofibrate 50 mg/100 g body weight/day by gavage for 5 days after 7 days BDL; mean ± standard error
[2] = system: liver fatty acid binding protein; assay: L-FABP mRNA (RT-PCR) and protein (Western blot) level in liver of bile duct ligated rats with clofibrate treatment; type: in vivo, rat; conditions: BDL rats, five day treatment with clofibrate, n=5
Text: FIG. 5. […] Bile-duct ligation animal model time study: […] Histopathologic examination: […] The sense primer was [NT] […] ID NO: 2) (position at 407).

bile duct ligated rats [3] = assay: Lipid peroxidation (thiobarbituric acid-reactive substances) assay in bile duct ligated rats with clofibrate treatment; type: in vivo, rat; conditions: BDL rats, clofibrate 50 mg/100 g body weight/day by gavage for 5 days after 7 days BDL, mean ± standard error
Text: Bile-duct ligation animal model time study: […] Histopathologic examination: […] The sense primer was [NT] […] ID NO: 2) (position at 407).

[4] = In vitro antioxidative effect on free radicals released by the lipophilic free radical generator AMVN; type: biochemical
Experimental: FIG. 7 Effect of L-FABP on free radicals released by the lipophilic free radical generator AMVN. L-FABP had as much effect on inactivating lipophilic free radicals as 5 μM Vitamin E (mean±SD, n=6).
(§1) Our group has constructed and isolated recombinant L-FABP and used this protein in an in vitro model to study it's antioxidative properties.

[5] = In vitro antioxidative effect on free radicals released by the hydrophilic free radical generator AAPH; type: biochemical; conditions: mean±SD, n=6
Experimental: FIG. 6 Effect of L-FABP on free radicals released by the hydrophilic free radical generator AAPH. L-FABP had as much effect on inactivating hydrophilic free radicals as 3.5 mM Vitamin C, while lysozyme and albumin had negligible effect, 96±1% and 97±1%, respectively (mean±SD, n=6).
as §1

CCOC(=O)C(C)(C)Oc1ccc(Cl)cc1 [Clofibrate]
ATL (bile duct ligated rats [1]): 30.70 ± 3.26 U/L
Ammonia (bile duct ligated rats [1]): 205.7 ± 16.6 µmol/L
Total Bilirubin (bile duct ligated rats [1]): 4.87 ± 0.90 mg/dL
liver fatty acid binding protein mRNA level, of the sham group ([2]; RT-PCR): 74%
liver fatty acid binding protein level, of the sham group ([2]; Western blot): 79%
TBARS (liver) (bile duct ligated rats [3]; liver): 0.266 ± 0.053 nmol/mg protein
TBARS (serum) (bile duct ligated rats [3]; serum): 0.212 ± 0.032 nmol/ml serum

O=C1O[C@H]([C@@H](O)CO)C(O)=C1O [Vitamin C]
antioxidant properties in the AMVN system [4]: no antioxidant properties

Albumin
effect on free radical inactivation (AAPH) [5]: 97±1%

Lysozyme
effect on free radical inactivation (AAPH) [5]: 96±1%
